According to patent publication US20260256659A1, “COMPLEX FOR SEALING DENTINAL TUBULE, REAGENT FOR TREATING DENTIN HYPERSENSITIVITY, AND USE THEREOF” (ANHUI MEDICAL UNIVERSITY, priority 2023, published 2026):

Test system: Streptococcus mutans
Test: In vitro antibacterial properties, turbidimetric method and plate coating method
Format: cell-based
Details: bacterial absorbance after 4 h incubation and bacterial number counting
Protocol: The anti-Streptococcus mutans performance of the prepared dentin sealing materials was evaluated by a turbidimetric method and a plate coating method.

[Cl-].[Cl-].[Sr+2] [Sr, strontium chloride]
ability to inhibit Streptococcus mutans: ability to inhibit Streptococcus mutans
